# Values quoted from earlier work in US12697345B2, “Microparticles containing stabilized CBD oil, and methods for the production thereof” (priority 2021, dated 2026).
# How the values were obtained:
# [1] = aerosolized
# [2] = estimated
# [3] = 600 mg oral CBD, healthy male volunteers
smiles,measurement,setting,value
"C=C(C)[C@@H]1CCC(C)=CC1c1c(O)cc(CCCCC)cc1O (stereo partly drawn) [CBD, 2-[(6R)-3-methyl-6-prop-1-en-2-ylcyclohex-2-en-1-yl]-5-pentylbenzene-1,3-diol]",Time to peak plasma concentrations,[1],5 to 10 min
same,Bioavailability from oral delivery,[2],6%
same,mean±SD whole blood level of CBD at 1 hour,[3]; 1 h,0.36 (0.64) ng/mL
same,mean±SD whole blood level of CBD at 2 hours,[3]; 2 h,1.62 (2.98) ng/mL
same,mean±SD whole blood level of CBD at 3 hours,[3]; 3 h,3.4 (6.42) ng/mL
